In PMC8197120, “Synthesis and Characterization of Some New Quinoxalin-2(1H)one and 2-Methyl-3H-quinazolin-4-one Derivatives Targeting the Onset and Progression of CRC with SAR, Molecular Docking, and ADMET Analyses” (Molecules, 2021):
Converted amounts (≈) assume the structure as drawn.

Tests used:
[1] = system: Bacteroides fragilis (ATCC 25285); test: Antibacterial activity, CFU viability; type: cell-based; conditions: ATCC25285, mean of two determinations, read-out: Mean IC50 ± SD
Procedure: (§1) Pure standard microbial isolates collected from King Khaled University Hospital were tested in this study, including Enterococcus faecalis (ATCC 29122) as Gram positive bacteria and Escherichia coli (ATCC 25922) and Bacteroides fragilis (ATCC 25285) as Gram negative bacteria. Fresh cultures of each microorganism were grown on nutrient agar plates (Oxoid, UK), of which small inoculums were suspended in 5 mL nutrient broth for bacterial suspension preparation of 0.5MacFarland. Bacterial viability was investigated by estimating the colony-forming unit (CFU) ability of the bacteria incubated at different time intervals without or with appropriate amounts of the compound that were mixed with 2 × 10^7 CFU/mL in sterile BHI broths and were incubated under shaking for 60 min at 37 °C. Samples were serially diluted into sterile BHI broths, streaked onto media agar plates, and incubated for 24 h at 37 °C. The antibacterial potency of tested compounds was expressed as the residual number of CFU with reference to the initial inoculums. […] Ampicillin (1 mg/mL) was used as a positive standard reference.

[2] = system: Enterococcus faecalis (ATCC 29122); test: Antibacterial activity, CFU viability; type: cell-based; conditions: ATCC29122, mean of two determinations, read-out: Mean IC50 ± SD
Procedure: as §1

[3] = system: Escherichia coli (ATCC 25922); test: Antibacterial activity, CFU viability; type: cell-based; conditions: ATCC25922, mean of two determinations, read-out: Mean IC50 ± SD
Procedure: as §1

COX-2 = target: T1, COX-2 (Homo sapiens, UniProt P35354); test: Cyclooxygenase (COX-2) inhibition assay (Cayman kit 701080); type: biochemical; conditions: for inhibition at 100 µg/mL: read-out: Mean Inhibition % at 100 µg/ml ± SD; for inhibition at 200 µg/mL: read-out: Mean Inhibition % at 200 µg/ml ± SD
T1 construct: purchased Cayman Chemical Company 701080
T1 sequence (P35354 18-604): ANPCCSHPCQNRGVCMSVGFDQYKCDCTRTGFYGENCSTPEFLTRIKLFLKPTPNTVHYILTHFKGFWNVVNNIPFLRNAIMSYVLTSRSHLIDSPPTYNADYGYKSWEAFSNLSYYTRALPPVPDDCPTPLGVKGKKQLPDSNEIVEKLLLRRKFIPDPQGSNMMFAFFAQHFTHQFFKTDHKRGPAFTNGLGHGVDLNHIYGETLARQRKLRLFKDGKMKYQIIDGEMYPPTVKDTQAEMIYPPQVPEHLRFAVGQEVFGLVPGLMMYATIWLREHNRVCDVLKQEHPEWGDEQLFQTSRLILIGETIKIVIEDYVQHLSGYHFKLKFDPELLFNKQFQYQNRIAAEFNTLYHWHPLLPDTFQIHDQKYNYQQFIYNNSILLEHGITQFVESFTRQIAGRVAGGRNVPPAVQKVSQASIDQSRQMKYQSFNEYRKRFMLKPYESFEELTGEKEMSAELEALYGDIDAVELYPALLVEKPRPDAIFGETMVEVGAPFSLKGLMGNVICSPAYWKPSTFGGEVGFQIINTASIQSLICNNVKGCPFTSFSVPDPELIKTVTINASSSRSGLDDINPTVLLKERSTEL
Procedure: The compounds were resuspended in 100% DMSO at a final concentration of 10 mg/mL. […] The inhibitory activity was expressed as the inhibition percentage, which was determined by comparison with a control experiment. IC50 values were deduced from the curves.

[4] = target: purified recombinant human LDHA protein (Homo sapiens, UniProt P00338); test: Lactate dehydrogenase-A (LDHA) inhibition assay, NADH consumption; type: biochemical; conditions: for inhibition at 100 µg/mL / inhibition at 200 µg/mL: LDHA; for inhibition at 100 µg/mL: read-out: Mean Inhibition % at 100 µg/ml ± SD; for inhibition at 200 µg/mL: read-out: Mean Inhibition % at 200 µg/ml ± SD; for fold by which (6e) is more potent than the labelled compound (LDHA inhibition efficiency): comparator 6e
Procedure: LDHA inhibition activity was investigated by measuring the amounts of consumed NADH as described by Kim and his group. Briefly, different concentrations of each compound (50, 100, 200, and 300 µg) were incubated in buffer containing 20 mM of HEPES-K+ (pH 7.2), 20 μM of NADH, 2 mM of pyruvate, and 10 ng of purified recombinant human LDHA protein for 10 min. The fluorescence of NADH, which has an excitation wavelength of 340 nm and emission wavelength of 460 nm, was detected using a Spectrofluorometer.

SMILES | IC50 [1] [µg/mL] | IC50 [2] [µg/mL] | IC50 [3] [µg/mL] | inhibition at 100 µg/mL (COX-2) [%] | inhibition at 200 µg/mL (COX-2) [%] | inhibition at 100 µg/mL [4] [%] | inhibition at 200 µg/mL [4] [%] | fold by which (6e) is more potent than the labelled compound (LDHA inhibition efficiency) ([4]; 200 µg/mL) [fold] | fold decrease of LDHA inhibition efficiency relative to (6g) ([4]; 200 µg/mL, comparator 6g) [fold]
CC1(C)S[C@@H]2[C@H](NC(=O)[C@H](N)c3ccccc3)C(=O)N2[C@H]1C(=O)O [Ampicillin, ampicillin, reference compound] | 16.1 (≈ 46.2 µM) | 12.8 (≈ 36.5 µM) | 20.2 (≈ 58 µM) | – | – | – | – | – | –
O=c1[nH]c2ccccc2[nH]c1=O [Compound 1] | 19.4 ± 1.48 (≈ 119 µM) | 20.2 ± 1.06 (≈ 125 µM) | 25.9 ± 0.778 (≈ 159 µM) | 30.9 ± 2.62 | 48.1 | 33.8 ± 2.55 | 68.2 | – | –
NN=c1[nH]c2ccccc2[nH]c1=O [Compound 2, 3-hydrazineylidene-3,4-dihydro quinoxalin-2(1H)-one] | 14.5 ± 0.99 (≈ 82.3 µM) | 13.6 ± 0.566 (≈ 77.2 µM) | 13.7 ± 1.34 (≈ 77.5 µM) | 7.55 ± 0.778 | 15.4 ± 2.19 | 26.7 ± 1.84 | 47.1 | – | –
COc1cc(C=NNc2nc3ccccc3[nH]c2=O)cc(Cl)c1O [Compound 4a, 3-[N’-(3-Chloro-4-hydroxy-5-methoxy-benzylidene)-hydrazino]-1H-quinoxalin-2-one] | 13.3 ± 0.849 (≈ 38.6 µM) | 27 ± 2.83 (≈ 78.3 µM) | 15 ± 0.566 (≈ 43.5 µM) | 4.65 ± 0.495 | 12.1 | 20.3 ± 1.63 | 28.2 | – | –
COc1cc(C=NNc2nc3ccccc3[nH]c2=O)cc(I)c1O [Compound 4b, 3-[N’-(4-Hydroxy-3-iodo-5-methoxy-benzylidene)-hydrazino]-1H-quinoxalin-2-one] | 40.6 ± 2.33 (≈ 93.2 µM) | 30.3 ± 2.4 (≈ 69.5 µM) | 13.6 ± 0.849 (≈ 31.2 µM) | 12.3 ± 0.919 | 21.1 | 27.4 ± 2.4 | 35.4 | – | –
COc1ccc2cc(C=NNc3nc4ccccc4[nH]c3=O)ccc2c1 [Compound 4e, 3-[N’-(6-Methoxy-naphthalen-2-ylmethylene)-hydrazino]-1H-quinoxalin-2-one] | 27.1 ± 1.84 (≈ 78.7 µM) | 18.2 ± 0.99 (≈ 52.8 µM) | 31.4 ± 1.48 (≈ 91.3 µM) | 30.3 ± 1.84 | 54 | 21.1 ± 2.19 | 31.2 | – | –
Cc1nc2ccc(Cl)cc2c(=O)n1N [Compound 5b] | 37 ± 2.83 (≈ 176 µM) | 27.5 ± 2.12 (≈ 131 µM) | 13.6 ± 1.48 (≈ 64.6 µM) | 5.7 ± 0.99 | 9.05 | 11.8 ± 1.06 | 21.2 | 3.6 | –
COc1ccc2cc(/C=N/n3c(C)nc4ccc(Cl)cc4c3=O)ccc2c1 [Compound 6c, 6-Chloro-3-oro-3-[(6-methoxy-naphthalen-2-ylmethylene)-amino]-2-methyl-3H-quinazolin-4-one] | 30.1 ± 0.636 (≈ 79.5 µM) | 20.4 ± 1.2 (≈ 54.1 µM) | 26.9 ± 1.56 (≈ 71.2 µM) | 23.8 ± 2.55 | 36.9 ± 1.63 | 13.3 ± 0.919 | 23 | 3.3 | –
CCc1ccc(/C=N/n2c(C)nc3ccc(Cl)cc3c2=O)s1 [Compound 6f, 6-Chloro-3-oro-3-[(5-ethyl-thiophen-2-ylmethylene)-amino]-2-methyl-3H-quinazolin-4-one] | 27.9 ± 1.56 (≈ 84.1 µM) | 22.6 ± 0.636 (≈ 68 µM) | 33.4 ± 3.39 (≈ 101 µM) | 10 ± 1.41 | 20.7 | 27.1 ± 1.48 | 40 | 1.9 | 2.2
